Here are results for 15 compounds from patent US6476034B2, “Antiviral azaindole derivatives” (priority 2000, dated 2002).

This assay deals with single-round infectious HIV-1 reporter virus. Description: microbe, parasite or virus in culture. The assay is classed as cell-based. As to conditions: for Average % inhibition at or <10 μM: HeLa CD4 CCR5 cells, luciferase expression 3 days (72 hours) after infection, compounds tested below 10 μM: % inhibition at 10 μM extrapolated with XLfit, mean of at least two experiments; for EC50: Human immunodeficiency virus 1, HeLa-CD4/CCR5; for inhibition at 10 µM: Human immunodeficiency virus 1, HeLa-CD4/CCR5, 72 h, read-out: Average % inhibition at or <10 μM.

For the compound `C[C@@H]1CN(c2ccccn2)CCN1C(=O)C(=O)c1c[nH]c2ncccc12` [Compound 5k, (R)-N-(pyridin-2-yl)-3-methyl/N′-[(7-azaindol-3-yl)-oxoacetyl]-piperazine], the “Average % inhibition at or <10 μM” value is listed as greater than 99%. For the compound `O=C(C(=O)N1CCN(C(=O)c2ccccc2)CC1)c1c[nH]c2ncccc12` [Compound 5d, N-(benzoyl)-N′-[(7-azaindol-3-yl)-oxoacetyl]-piperazine], the EC50 was less than 1 µM and the inhibition at 10 µM amounted to 98%. Take “(R)-N-(benzoyl)-3-methyl-N′-[(4 or 6)-5phenyl-7-azaindol-3-yl)-oxoacetyl]-piperazine [Compound 11b]”: the “Average % inhibition at or <10 μM” value is 85%. `C[C@@H]1CN(C(=O)c2ccccc2)CCN1C(=O)C(=O)c1c[nH]c2nccc(O)c12` [Compound 5ah, (R)-N-(benzoyl)-3-methyl-N′-[(4-hydroxyl-7-azaindol-3-yl)-oxoacetyl]-piperazine] registered an EC50 greater than 5 µM. Take `C[C@@H]1CN(C(=O)c2ccccc2)CCN1C(=O)C(=O)c1c[nH]c2cccnc12` [Compound 5w, (R)-N-(benzoyl)-3-Methyl-N′-[(4-azaindol-3-yl)-oxoacetyl]-piperazine]: the EC50 is less than 1 µM and the inhibition at 10 µM was found to be 98%. `CCOc1cc[n+]([O-])c2[nH]cc(C(=O)C(=O)N3CCN(C(=O)c4ccccc4)C[C@H]3C)c12` [Compound 16d, (R)-N-(benzoyl)-3-methyl-N′-[(4-ethoxy-7-oxide-7-azaindol-3-yl)-oxoacetyl]-piperazine]: the “Average % inhibition at or <10 μM” value is given as 88%. The same measure, in the same setting: the value for “(R)-N-(benzoyl)-3-methyl-N′-[(4 or 6)-vinyl-7-azaindol-3-yl)-oxoacetyl]-piperazine [Compound 11c]” was 48%. In the case of `C[C@@H]1CN(C(=O)c2ccccc2)CCN1C(=O)C(=O)c1c[nH]c2c(Cl)nccc12` [Compound 5u, (R)-N-(benzoyl)-3-Methyl-N′-[(7-Chloro-6-azaindol-3-yl)-oxoacetyl]-piperazine], the EC50 was less than 1 µM and the inhibition at 10 µM amounted to 99%. The corresponding values for `C[C@H]1CN(C(=O)c2ccccc2)CCN1C(=O)C(=O)c1c[nH]c2ncccc12` [Compound 5f, (S)-N-(benzoyl)-3-methyl-N′-[(7-azaindol-3-yl)-oxoacetyl]-piperazine] are less than 1 µM and 80%. In the case of `C[C@@H]1CN(C(=O)c2ccccc2)CCN1C(=O)C(=O)c1c[nH]c2nc(O)ccc12` [Compound 14a, (R)-N-(benzoyl)-3-methyl-N′-[(6-hydroxyl-7-azaindol-3-yl)-oxoacetyl]-piperazine], the inhibition at 10 µM is greater than 99%. Turning to `CC(C)Oc1ccnc2[nH]cc(C(=O)C(=O)N3CCN(C(=O)c4ccccc4)C[C@H]3C)c12` [Compound 17c, (R)-N-(benzoyl)-3-methyl-N′-[(4-(1-methylethoxy)-7-azaindol-3-yl)-oxoacetyl]-piperazine], the EC50 was less than 1 µM and the inhibition at 10 µM was greater than 99%. In turn, `Cc1cc(Cl)nc2c(C(=O)C(=O)N3CCN(C(=O)c4ccccc4)C[C@H]3C)c[nH]c12` [Compound 5ak, (R)-N-(benzoyl)-3-Methyl-N′-[(5-Chloro-7-methyl-4-azaindol-3-yl)-oxoacetyl]-piperazine] came in with an EC50 of less than 1 µM. For the compound `C[C@@H]1CN(c2ccc(Br)o2)CCN1C(=O)C(=O)c1c[nH]c2ncccc12` [Compound 5l, (R)-N-(5-bromo-furan-2-yl)-3-methyl-N′-[(7-azaindol-3-yl)-oxoacetyl]-piperazine], the EC50 is less than 1 µM and the inhibition at 10 µM is greater than 99%. In the case of `CC(C)C1CN(C(=O)c2c[nH]c3ncccc23)CCN1C(=O)c1ccccc1` (stereo not drawn) [Compound 5ad, N-(benzoyl)-2-iso-Propyl-N′-[(7-azaindol-3-yl)-carbonyl]-piperazine], the EC50 is greater than 0.5 µM. Same read-out and setting: the same measure for `COc1cnc(Cl)c2[nH]cc(C(=O)C(=O)N3CCN(C(=O)c4ccccc4)CC3)c12` [Compound 5an, N-(benzoyl)-N′-[(7-chloro-4-methoxy-6-azaindol-3-yl)-oxoacetyl]piperazine]: less than 1 µM.

Usually EC50 stands for the concentration at which the effect is half-maximal. The low end stands for greater potency, the high end for weaker potency. Broadly, the inhibition is the change of the read-out against control, counted positive when it falls.
